This is an account of results in PMC6934184, “Selective DNA-PKcs inhibition extends the therapeutic index of localized radiotherapy and chemotherapy” (The Journal of Clinical Investigation, 2019).

Molecules are shown by their SMILES.

For this experiment, the target named is T1, NEK9 (Homo sapiens, UniProt Q8TD19).
T1 construct: purchased Thermo Fisher Scientific (Life Technologies) SelectScreen
Description: SelectScreen Z'LYTE. Type of experiment: biochemical. The method in brief:
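SelectScreen broad panel; activity (Z'LYTE, Adapta) plus binding formats. ATP: Km app for CSF1R Z'LYTE; 10 for CAMK1 Adapta. Readout = % per kinase.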

T1 sequence (Q8TD19 whole entry): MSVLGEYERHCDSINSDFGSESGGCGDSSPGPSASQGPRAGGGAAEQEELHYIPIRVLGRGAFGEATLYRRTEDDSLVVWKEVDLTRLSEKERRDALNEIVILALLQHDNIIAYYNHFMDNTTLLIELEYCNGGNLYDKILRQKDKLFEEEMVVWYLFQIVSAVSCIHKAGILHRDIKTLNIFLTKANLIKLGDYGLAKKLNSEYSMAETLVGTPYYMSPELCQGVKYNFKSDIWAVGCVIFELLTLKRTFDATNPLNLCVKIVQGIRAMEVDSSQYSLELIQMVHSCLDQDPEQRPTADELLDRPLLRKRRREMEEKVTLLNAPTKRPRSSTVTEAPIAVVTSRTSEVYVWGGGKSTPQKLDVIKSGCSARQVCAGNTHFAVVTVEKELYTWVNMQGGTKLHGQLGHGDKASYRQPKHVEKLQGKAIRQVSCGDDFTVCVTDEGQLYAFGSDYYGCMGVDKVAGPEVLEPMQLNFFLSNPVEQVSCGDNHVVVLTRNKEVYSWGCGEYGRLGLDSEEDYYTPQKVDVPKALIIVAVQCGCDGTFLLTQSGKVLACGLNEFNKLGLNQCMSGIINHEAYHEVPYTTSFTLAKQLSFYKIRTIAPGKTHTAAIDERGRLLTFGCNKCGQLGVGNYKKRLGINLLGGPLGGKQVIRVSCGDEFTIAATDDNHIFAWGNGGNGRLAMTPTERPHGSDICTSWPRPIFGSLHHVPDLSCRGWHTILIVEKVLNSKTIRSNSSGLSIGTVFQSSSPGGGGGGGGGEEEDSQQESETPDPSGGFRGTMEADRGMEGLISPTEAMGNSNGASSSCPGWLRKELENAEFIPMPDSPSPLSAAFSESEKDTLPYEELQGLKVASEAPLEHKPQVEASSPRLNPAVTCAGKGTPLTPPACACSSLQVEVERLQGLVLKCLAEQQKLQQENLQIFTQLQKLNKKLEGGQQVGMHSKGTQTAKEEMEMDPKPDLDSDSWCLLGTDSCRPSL

As for `CN(C(=O)CN1CCOCC1)c1ccc2sc3c(-c4cccc5c(=O)cc(N6CC7CCC(C6)O7)oc45)cccc3c2c1` [NU5455], the inhibition at 1 µM is -7.2%.
